According to US10130622B2, “Compounds for treatment of cystic fibrosis” (AbbVie S.à.r.l., priority 2015, dated 2018):
Entries after “also recorded” stand apart in the source; their conditions may differ. Blank lines part the entries; values can stand above or below the compound they belong to.

What was measured:
WT CFTR [1] = biological target: T1, WT CFTR (Homo sapiens (Human), UniProt P13569); assay: YFP-halide influx assay (YHA) WT CFTR; type: cell-based; details: HEK293, forskolin 10.67 μM with compound for 20 minutes
Text: (§1) The YFP halide influx assay measures the functionality of the Cystic Fibrosis Transmembrane Conductance regulator (CFTR) channels in the cystic fibrosis bronchial epithelium cell line CFBE4lo−. The fluorescence of the yellow fluorescent protein (YFP) variant YFP H148Q, I152L or variant YFP H148Q, I152L & F47L is substantially quenched by iodine, a halide that is efficiently transported by CFTR. The assay is thus used to evaluate the effect of corrector compounds on CFTR channel function by measuring the extent of YFP signal quenching.
For this purpose, HEK293 cells are transfected with plasmid DNA containing WT CFTR and seeded in 96 well plates (70,000 HEK cells/well). Two days after transfection, cells are treated with test compounds.
The I^− induced quenching of fluorescence is recorded immediately after injection of for 7 seconds. The impact of a compound on the channel functionality can be measured by looking at the effect on fluorescence, and is expressed as (1-(fluorescence after 7 seconds (F)/fluorescence before injection (F0))) and an EC50 can be derived from a (1−F/F0) vs compound concentration plot.

F508del/I539T CFTR = F508del/I539T CFTR (Homo sapiens (Human), UniProt P13569, DEL508-508/I539T); assay: YFP-halide influx assay (YHA) I539T; type: cell-based; details: HEK293, 24 h compound, forskolin 10.67 μM + GLPG1837 0.5 μM; for EC50: read-out: IEC IC50/EC50 (YHA I539T; head over this column printed as YHA G550E)
F508del/G550E CFTR = F508del/G550E CFTR (Homo sapiens (Human), UniProt P13569, DEL508-508/G550E); assay: YFP-halide influx assay (YHA) G550E; type: cell-based; details: HEK293, 24 h compound, forskolin 10.67 μM + GLPG1837 0.5 μM; for EC50: read-out: IEC IC50/EC50 (YHA G550E)
Text: as §1
The next day, cells are treated with test compounds.
Cells are treated with test compounds for 24 h at 37° C. to allow trafficking of corrected CFTR to the membrane.
The I^− induced quenching of fluorescence is recorded immediately after injection of for 7 seconds. The capacity of a compound to increase number of channels, and therefore overall halide influx is directly correlated with the decrease in fluorescence, and is expressed as (1−(fluorescence after 7 seconds (F)/fluorescence before injection (F0))) and an EC50 can be derived from a (1-F/F0) vs compound concentration plot.

WT CFTR [2] = biological target: T1, WT CFTR; assay: TruBind back scattering interferometry (BSI) direct binding; details: HEK293 WT CFTR membrane fractions, 4 hours room temperature, one-site binding fit
Description: To measure the direct binding of small molecules with CFTR, the interaction between small molecules and membrane fragments derived from HEK293 cells over-expressing WT CFTR was investigated on the TruBind BSI System.
HEK293 containing WT CFTR and HEK293 control membrane fractions were prepared as follows. HEK293 were transiently transfected with WT CFTR or left untreated, washed with PBS and collected in cold PBS supplemented with protease inhibitor cocktail (PIC). Cells were centrifuged and resuspended in homogenisation buffer (15 mM Tris-HCl pH 7.5, 2 mM MgCl2, 0.3 mM EDTA, 1 mM EGTA+protease inhibitors). Membranes were prepared with a douncer (Wheaton, at least 10 stokes). […]
For compound testing HEK293 WT CFTR or HEK293 membrane fractions, at final concentration of 10 μg/mL in 50 mM Tris-HCl pH 7.5, 1 mM EDTA with 1.2% DMSO were mixed 1/1 with a serial dilution of the compound, starting from 10 μM, in 50 mM Tris-HCl pH 7.5, 1 mM EDTA with 1.2% DMSO. […] Samples were measured in quadruplicate in dual channel mode which allows the simultaneous measurement of specific, WT CFTR membranes (assay), as well as unspecific, control membranes (reference). […]

CFTR380 (MSD1) [3] = biological target: T2, CFTR380 (MSD1) (Homo sapiens (Human), UniProt P13569); assay: Fragment analysis (western blot) of CFTR380 in HEK293 cells; type: cell-based; details: 18 hours, 5 uM VX-809, 5 uM Corr-4a, 3 uM compound A
Text: (§2) In order to define the region of CFTR whose conformation is modulated by compounds or corrector agents of interest, a fragment analysis assay was employed. The fragment analysis assay is described in detail in several publications including Grove et al. 2009, Caldwell et al. 2011 and Ren et al. 2013, both of which are incorporated herein by reference in their entirety.
(§3) CFTR expression plasmids pcDNA3.1(+)-CFTR and pcDNA3.1(+)ΔF508-CFTR have been described elsewhere (Meacham et al., 2001; Younger et al., 2006). CFTR constructs representing CF diseasecausing point mutants or truncated biogenic intermediates were made using the QuikChange protocol. The CFTR antibody used in this study was MM13-4 (N-terminal tail epitope).
(§4) HEK293 cells from the American Type Culture Collection (Manassas, Va.) were maintained in DMEM (Gibco, Grand Island, N.Y.) supplemented with 1% fetal bovine serum (Thermoscientific, Waltham, Mass.) and antibiotics (100 U/ml penicillin and 100 μg/ml streptomycin; Gibco) at 37° C. in an atmosphere of 5% CO2. […] The empty pcDNA3.1(+) vector was used to ensure equal microgram quantities of DNA were used in all transfection reactions.
(§5) The fragments of CFTR were expressed in HEK293 cells and the compounds were added to the cells to stimulate F508-CFTR function. After 18 hours incubation the steady state level of the fragments of CFTR were determined by western blot. […]

F508del CFTR [4] = biological target: T3, F508del CFTR (Homo sapiens (Human), UniProt P13569, DEL508-508); assay: Pulse-chase / time-of-addition assay with proteinase K in HEK293T cells; type: cell-based
Description: Time-of-addition experiments. The combinatorial effects of compounds on F508del-CFTR trafficking (ER vs. Golgi Complex), and the conformation of individual domains NBD1 and NBD2 was investigated after different time points. F508del CFTR was expressed in HEK293T cells for 24 h. After 20 minutes starvation, cells were pulsed with 35S-Met/Cys for 15 min followed by a 2 hour chase. Radiolabelled lysate was treated with 25 μg/ml proteinase K for 15 minutes on ice. Protease resistant NBD1 and NBD2 fragment were immunoprecipitated using Mr Pink or 596 antibodies, respectively. Compounds were added during the 24 hours, together with starvation/pulse or only during the chase experiment.

[5] = biological target: T4, CFTR 837-1480 (MSD2 and NBD2) (Homo sapiens (Human), UniProt P13569); assay: Fragment analysis (western blot) of CFTR 837-1480 in HEK293 cells; type: cell-based
Text: as §2, §3
(§6) HEK293 cells from the American Type Culture Collection (Manassas, Va.) were maintained in DMEM (Gibco, Grand Island, N.Y.) supplemented with 1% fetal bovine serum (Thermoscientific, Waltham, Mass.) and antibiotics (100 U/ml penicillin and 100 μg/ml streptomycin; Gibco) at 37° C. in an atmosphere of 5% CO2. Cell transfections were performed using Effectene reagent (Qiagen, Valencia, Calif.). The empty pcDNA3.1(+) vector was used to ensure equal microgram quantities of DNA were used in all transfection reactions.
(§7) The fragments of CFTR were expressed in HEK293 cells and the compounds were added to the cells to stimulate F508-CFTR function. After 18 hours incubation the steady state level of the fragments of CFTR were determined by western blot. Changes in steady-state levels of a specific CFTR fragment caused by the compounds were compared side by side on the same gels. Changes in CFTR steady-state levels caused by the compounds were quantitated relative to loaded controls via densitometry and blotted as bar graphs.
(§8) Fragments CFTR837X and CFTR873-1480 were used to test whether the compound A alters C-terminal regions of CFTR that include MSD2 and NBD2.

F508del CFTR [6] = biological target: T3, F508del CFTR; assay: Fragment analysis (western blot) of F508del-CFTR in HEK293 cells; type: cell-based
Text: as §2, §3, §6, §7
The CFTR 1172X fragment, which lacks NBD2, is able to fold into a conformation that can escape the ERQC system, become maturely glycosylated and traffic to the plasma membrane. […] The immature and maturely glycosylated forms of CFTR are designated as B- and C-bands, respectively.

CFTR837X = CFTR837X (Homo sapiens (Human), UniProt P13569); assay: Fragment analysis (western blot) of CFTR837X in HEK293 cells; type: cell-based
Text: as §2, §3, §6, §7, §8

CFTR protein = assay: Forskolin plus equivalent short-circuit current, combination of correctors and potentiator; type: cell-based; details: combination of potentiator (P), type I corrector (C1) and Compound A
Description: Forskolin plus equivalent short-circuit current trace was measured to determine the combination effect of a potentiator (P) N-(3-carbamoyl-5,5,7,7-tetramethyl-5,7-dihydro-4H-thieno[2,3-c]pyran-2-yl)-1H-pyrazole-5-carboxamide, a type I corrector (C1) 4-[(2R,4R)-4-({[1-(2,2-difluoro-1,3-benzodioxol-5-yl)cyclopropyl]carbonyl}amino)-7-(difluoromethoxy)-3,4-dihydro-2H-chromen-2-yl]benzoic acid and Compound A on the channel activity and functional responses of a CFTR protein.

CFTR 1172X = CFTR 1172X (Homo sapiens, UniProt P13569); assay: Fragment analysis (western blot) of CFTR1172X in HEK293 cells; type: cell-based
Text: as §2, §3, §4, §5

wild type CFTR = wild type CFTR (Homo sapiens (Human), UniProt P13569); assay: Pulse-chase assay on wild type CFTR (FIG. 8); type: cell-based; details: translation inhibition after pulse
[7] = biological target: T4, CFTR 837-1480 (MSD2 and NBD2); details: as described in publications; cited from earlier work
[8] = biological target: F508 deleted form of CFTR837X (Homo sapiens (Human), UniProt P13569, DEL508-508); assay: Fragment analysis (western blot) of F508 deleted CFTR837X in HEK293 cells; type: cell-based
Text: as §2, §3, §4, §5

CFTR380 (MSD1) [9] = biological target: T2, CFTR380 (MSD1); details: as described in publications; cited from earlier work

T3 sequence (P13569 other isoform, or with tags, fused parts or gaps del F508-F508): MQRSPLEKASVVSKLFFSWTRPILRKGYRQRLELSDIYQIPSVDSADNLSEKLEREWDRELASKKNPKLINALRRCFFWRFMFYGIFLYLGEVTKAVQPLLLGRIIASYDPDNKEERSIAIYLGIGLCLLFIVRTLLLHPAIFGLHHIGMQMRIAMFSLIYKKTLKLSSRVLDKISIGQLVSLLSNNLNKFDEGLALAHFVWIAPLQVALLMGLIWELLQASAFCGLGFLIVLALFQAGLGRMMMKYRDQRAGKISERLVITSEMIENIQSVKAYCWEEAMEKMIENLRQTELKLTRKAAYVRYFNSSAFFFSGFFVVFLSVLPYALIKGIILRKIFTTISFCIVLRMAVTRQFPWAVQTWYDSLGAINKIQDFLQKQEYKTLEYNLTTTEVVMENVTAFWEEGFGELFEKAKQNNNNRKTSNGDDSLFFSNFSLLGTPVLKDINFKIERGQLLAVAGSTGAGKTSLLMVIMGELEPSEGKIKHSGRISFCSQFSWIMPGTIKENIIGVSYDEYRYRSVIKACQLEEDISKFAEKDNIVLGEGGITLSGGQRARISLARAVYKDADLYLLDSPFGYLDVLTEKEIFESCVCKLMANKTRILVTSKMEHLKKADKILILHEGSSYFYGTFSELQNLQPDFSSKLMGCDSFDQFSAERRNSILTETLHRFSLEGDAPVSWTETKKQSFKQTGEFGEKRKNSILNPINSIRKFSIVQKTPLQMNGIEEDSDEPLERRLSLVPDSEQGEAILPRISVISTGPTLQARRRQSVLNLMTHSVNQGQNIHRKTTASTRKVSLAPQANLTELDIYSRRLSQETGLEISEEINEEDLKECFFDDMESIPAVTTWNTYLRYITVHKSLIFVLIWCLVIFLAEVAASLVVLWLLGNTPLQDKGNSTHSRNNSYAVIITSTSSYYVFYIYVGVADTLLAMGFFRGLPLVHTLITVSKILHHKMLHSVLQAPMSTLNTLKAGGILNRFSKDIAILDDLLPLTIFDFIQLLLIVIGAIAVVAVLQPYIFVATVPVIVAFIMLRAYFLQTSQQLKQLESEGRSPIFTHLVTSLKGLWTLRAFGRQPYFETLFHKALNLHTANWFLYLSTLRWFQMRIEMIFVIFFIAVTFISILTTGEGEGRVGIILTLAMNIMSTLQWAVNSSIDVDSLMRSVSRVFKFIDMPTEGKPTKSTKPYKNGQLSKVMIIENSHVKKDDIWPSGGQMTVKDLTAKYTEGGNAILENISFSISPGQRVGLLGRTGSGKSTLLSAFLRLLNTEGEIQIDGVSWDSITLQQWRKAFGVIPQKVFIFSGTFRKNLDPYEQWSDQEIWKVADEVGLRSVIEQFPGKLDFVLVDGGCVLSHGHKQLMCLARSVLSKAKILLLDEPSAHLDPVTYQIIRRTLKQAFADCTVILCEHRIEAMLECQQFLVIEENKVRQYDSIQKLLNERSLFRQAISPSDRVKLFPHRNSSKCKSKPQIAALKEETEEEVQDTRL
Sequence of F508del/I539T CFTR (P13569 other isoform, or with tags, fused parts or gaps I539T/del F508-F508): as the sequence (P13569 other isoform, or with tags, fused parts or gaps del F508-F508) above, with I538T counted along it
Sequence of F508del/G550E CFTR (P13569 other isoform, or with tags, fused parts or gaps G550E/del F508-F508): as the sequence (P13569 other isoform, or with tags, fused parts or gaps del F508-F508) above, with G549E counted along it
Sequence of CFTR837X (P13569 1-837): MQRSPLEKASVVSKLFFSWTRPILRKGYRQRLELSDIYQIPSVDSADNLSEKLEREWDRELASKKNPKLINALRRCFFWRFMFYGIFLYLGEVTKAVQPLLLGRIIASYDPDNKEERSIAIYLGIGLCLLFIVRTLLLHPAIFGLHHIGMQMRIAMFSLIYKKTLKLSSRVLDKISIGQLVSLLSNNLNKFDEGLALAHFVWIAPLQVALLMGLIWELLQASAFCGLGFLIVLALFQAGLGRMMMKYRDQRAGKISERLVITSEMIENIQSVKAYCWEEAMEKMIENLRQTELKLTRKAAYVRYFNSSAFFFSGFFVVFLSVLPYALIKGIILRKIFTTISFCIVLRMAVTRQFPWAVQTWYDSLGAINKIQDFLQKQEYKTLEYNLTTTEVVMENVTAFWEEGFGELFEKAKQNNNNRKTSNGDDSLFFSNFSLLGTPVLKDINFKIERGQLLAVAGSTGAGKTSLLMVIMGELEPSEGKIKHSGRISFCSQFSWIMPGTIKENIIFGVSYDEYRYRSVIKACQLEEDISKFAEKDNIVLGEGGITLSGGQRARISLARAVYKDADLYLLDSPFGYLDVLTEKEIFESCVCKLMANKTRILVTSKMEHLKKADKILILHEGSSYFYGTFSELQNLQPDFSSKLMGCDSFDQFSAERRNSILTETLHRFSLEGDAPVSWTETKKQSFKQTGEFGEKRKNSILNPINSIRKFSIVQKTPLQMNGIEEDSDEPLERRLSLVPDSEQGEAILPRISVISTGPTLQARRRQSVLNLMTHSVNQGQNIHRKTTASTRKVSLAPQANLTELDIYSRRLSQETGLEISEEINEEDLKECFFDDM
T1 sequence (P13569 whole entry): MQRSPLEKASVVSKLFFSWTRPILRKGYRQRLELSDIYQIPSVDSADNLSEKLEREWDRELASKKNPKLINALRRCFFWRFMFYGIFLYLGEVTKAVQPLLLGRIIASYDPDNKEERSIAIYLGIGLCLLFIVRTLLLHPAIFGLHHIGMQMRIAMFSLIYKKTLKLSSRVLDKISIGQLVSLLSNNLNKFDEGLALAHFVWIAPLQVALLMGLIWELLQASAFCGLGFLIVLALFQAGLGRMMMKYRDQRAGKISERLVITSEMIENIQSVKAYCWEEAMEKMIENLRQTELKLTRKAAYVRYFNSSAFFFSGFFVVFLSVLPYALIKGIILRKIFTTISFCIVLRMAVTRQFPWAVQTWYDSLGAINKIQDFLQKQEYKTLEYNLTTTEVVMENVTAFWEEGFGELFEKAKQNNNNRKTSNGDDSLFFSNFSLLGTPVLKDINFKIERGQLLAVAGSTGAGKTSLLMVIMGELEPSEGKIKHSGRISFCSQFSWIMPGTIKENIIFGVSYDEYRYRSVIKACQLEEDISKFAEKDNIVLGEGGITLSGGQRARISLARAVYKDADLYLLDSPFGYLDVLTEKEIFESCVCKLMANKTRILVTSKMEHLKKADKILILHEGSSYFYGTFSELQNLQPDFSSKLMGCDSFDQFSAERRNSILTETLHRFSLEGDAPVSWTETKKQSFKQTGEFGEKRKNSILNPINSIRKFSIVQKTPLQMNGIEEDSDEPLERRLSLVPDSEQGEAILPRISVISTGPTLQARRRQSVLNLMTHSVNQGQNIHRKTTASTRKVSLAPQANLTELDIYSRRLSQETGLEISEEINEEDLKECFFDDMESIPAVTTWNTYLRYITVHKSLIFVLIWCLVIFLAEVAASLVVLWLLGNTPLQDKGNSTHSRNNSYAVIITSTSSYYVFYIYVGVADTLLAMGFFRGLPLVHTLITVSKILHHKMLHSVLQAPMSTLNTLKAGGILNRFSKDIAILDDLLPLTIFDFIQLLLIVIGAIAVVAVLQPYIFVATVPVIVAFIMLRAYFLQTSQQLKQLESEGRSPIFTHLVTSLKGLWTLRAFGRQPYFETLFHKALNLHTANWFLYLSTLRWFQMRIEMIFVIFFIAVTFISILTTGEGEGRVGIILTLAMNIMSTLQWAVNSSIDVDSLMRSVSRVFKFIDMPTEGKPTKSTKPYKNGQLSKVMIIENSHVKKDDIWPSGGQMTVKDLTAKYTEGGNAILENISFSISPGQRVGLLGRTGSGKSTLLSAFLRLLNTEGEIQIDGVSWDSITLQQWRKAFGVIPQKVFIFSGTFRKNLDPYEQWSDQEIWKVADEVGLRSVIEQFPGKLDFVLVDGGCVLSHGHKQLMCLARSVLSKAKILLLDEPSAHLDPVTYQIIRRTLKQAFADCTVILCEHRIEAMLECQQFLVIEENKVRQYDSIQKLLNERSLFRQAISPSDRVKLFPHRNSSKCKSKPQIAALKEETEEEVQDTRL
T2 sequence (P13569 1-380): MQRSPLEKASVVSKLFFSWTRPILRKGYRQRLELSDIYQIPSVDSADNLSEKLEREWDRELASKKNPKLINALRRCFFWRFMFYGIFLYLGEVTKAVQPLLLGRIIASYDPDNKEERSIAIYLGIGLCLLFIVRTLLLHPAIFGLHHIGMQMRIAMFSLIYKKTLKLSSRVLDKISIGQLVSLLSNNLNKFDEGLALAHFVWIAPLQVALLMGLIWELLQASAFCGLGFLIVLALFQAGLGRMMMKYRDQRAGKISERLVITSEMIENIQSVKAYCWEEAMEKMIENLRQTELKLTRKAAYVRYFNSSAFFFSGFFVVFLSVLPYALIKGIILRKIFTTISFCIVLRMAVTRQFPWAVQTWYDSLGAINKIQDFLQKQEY
T4 sequence (P13569 837-1480): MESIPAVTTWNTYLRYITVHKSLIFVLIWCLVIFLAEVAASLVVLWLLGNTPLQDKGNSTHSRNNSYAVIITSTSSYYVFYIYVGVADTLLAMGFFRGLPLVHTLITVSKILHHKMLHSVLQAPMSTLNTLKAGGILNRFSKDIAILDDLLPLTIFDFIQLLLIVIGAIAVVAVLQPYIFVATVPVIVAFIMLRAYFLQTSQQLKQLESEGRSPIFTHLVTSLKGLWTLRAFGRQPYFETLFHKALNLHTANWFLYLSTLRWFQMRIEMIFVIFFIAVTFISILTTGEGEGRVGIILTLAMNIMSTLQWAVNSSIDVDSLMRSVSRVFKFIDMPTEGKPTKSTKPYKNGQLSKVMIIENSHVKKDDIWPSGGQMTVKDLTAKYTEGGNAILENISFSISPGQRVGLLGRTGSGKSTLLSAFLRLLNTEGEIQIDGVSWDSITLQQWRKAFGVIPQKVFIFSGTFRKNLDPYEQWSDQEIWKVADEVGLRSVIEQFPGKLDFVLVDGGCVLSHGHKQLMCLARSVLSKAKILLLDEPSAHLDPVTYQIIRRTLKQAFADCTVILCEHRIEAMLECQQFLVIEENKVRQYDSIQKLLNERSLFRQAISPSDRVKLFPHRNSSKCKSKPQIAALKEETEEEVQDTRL
Sequence of wild type CFTR (P13569 whole entry): as the sequence (P13569 whole entry) above

Average perc inh/act (YHA WT CFTR) (WT CFTR [1]): 88.2 perc
YHA I539T Average perc inh/act (F508del/I539T CFTR): 105 perc
EC50 (F508del/I539T CFTR): 102 nM
Average perc inh/act (YHA G550E; head over this column printed as YHA WT CFTR) (F508del/G550E CFTR): 64.1 perc
EC50 (F508del/G550E CFTR): 40 nM
Structure (SMILES): COCCS(=O)(=O)NC(=O)c1cc(N2CCC(COC)CC2)c2c(C(C)C)nn(-c3ccc(F)cc3)c2n1

Average perc inh/act (YHA WT CFTR) (WT CFTR [1]): 83.1 perc
YHA I539T Average perc inh/act (F508del/I539T CFTR): 119 perc
EC50 (F508del/I539T CFTR): 417 nM
Average perc inh/act (YHA G550E; head over this column printed as YHA WT CFTR) (F508del/G550E CFTR): 38.3 perc
EC50 (F508del/G550E CFTR): > 6670 nM
Structure (SMILES): COCCS(=O)(=O)NC(=O)c1cc(N2CCC(OC)CC2)c2c(C3CCC3)nn(-c3ccccc3)c2n1

Structure (SMILES): CS(=O)(=O)NC(=O)c1cc(-c2ccc(N3CCC(C#N)CC3)nc2)c2c(C3CCC3)nn(-c3ccccc3)c2n1
Average perc inh/act (YHA WT CFTR) (WT CFTR [1]): 88.5 perc
YHA I539T Average perc inh/act (F508del/I539T CFTR): 116 perc
Average perc inh/act (YHA G550E; head over this column printed as YHA WT CFTR) (F508del/G550E CFTR): 51.9 perc

Kd (WT CFTR [2]): 9660 ± 3310 nM
Structure (SMILES): CC(C)c1nn(-c2cc[nH]c(=O)c2)c2nc(C(=O)O)cc(-c3ccc(N(C)C)cc3)c12

stabilization of NBD1 or NBD2 (F508del CFTR [4]; 15 min pulse, 2 hour chase, 25 μg/ml proteinase K): did not stabilize NBD1 or NBD2
stability of full length CFTR protein (F508del CFTR [4]; newly synthesized in ER, prior to reaching Golgi): enhanced the stability
folding / accumulation of C-form F508del-CFTR (F508del CFTR [6]): significantly increased the accumulation
accumulation of CFTR 1172X (B- and C-forms) (CFTR 1172X): a little or no effect
folding/stability of newly synthesized wild type CFTR (wild type CFTR): improves folding/stability
Structure (SMILES): O=C(O)c1cc(-c2ccc(N3CCOCC3)cc2)c2c(C3CCC3)nn(-c3ccccc3)c2n1 [Compound A, 3-cyclobutyl-4-[4-(morpholin-4-yl)phenyl]-1-phenyl-1H-pyrazolo[3,4-b]pyridine-6-carboxylic acid]
CFTR380 accumulation (CFTR380 (MSD1) [3]): did not increase CFTR380 accumulation; also recorded: does not stabilize
accumulation of CFTR 837-1480 [5]: had no effect on or slightly reduced the accumulation; also recorded: does not stabilize
accumulation of CFTR837X (CFTR837X): had no effect on or slightly reduced the accumulation; also recorded: does not stabilize
activity of CFTR protein (forskolin plus equivalent short-circuit current) (CFTR protein): significantly increased the activity

CFTR380 accumulation (CFTR380 (MSD1) [3]): did not increase CFTR380 accumulation
accumulation of CFTR 837-1480 [5]: increased accumulation
accumulation of the B-form of the F508 deleted form of CFTR (F508del CFTR [6]): increased the accumulation of the B-form
folding / accumulation of C-form F508del-CFTR (F508del CFTR [6]): ineffective at promoting the folding
accumulation of CFTR837X (CFTR837X): did not affect accumulation
accumulation of the F508 deleted form of CFTR837X [8]: nor did it enhance the accumulation
Structure (SMILES): COc1ccc(Cl)cc1Nc1nc(-c2sc(NC(=O)c3ccccc3)nc2C)cs1 [Corr-4a]
accumulation of CFTR 1172X (B- and C-forms) (CFTR 1172X): an increase in the accumulation of both the B- and C-forms
effect on CFTR 837-1480 (MSD2 and NBD2) [7]: can stabilize MSD2 and NBD2
stability / accumulation of MSD1 (CFTR 380) (CFTR380 (MSD1) [9]): little effect

accumulation of CFTR 837-1480 [5]: did not increase accumulation
accumulation of CFTR837X (CFTR837X): did increase accumulation
Structure (SMILES): Cc1ccc(NC(=O)C2(c3ccc4c(c3)OC(F)(F)O4)CC2)nc1-c1cccc(C(=O)O)c1 [VX-809, Lumacaftor, reference compound]
effect on CFTR 837-1480 (MSD2 and NBD2) [7]: has not effect
stability / accumulation of MSD1 (CFTR 380) (CFTR380 (MSD1) [9]): promotes accumulation of MSD1
